Legend:
[1] = target: T1, Mut-p53 (R175H p53) (Homo sapiens, UniProt P04637, R175H); assay: p53/DNA binding ELISA kit (R&D), binding to p53-RE DNA; assay type: biochemical; settings: H1299-R175H p53 cell extracts, vs background (NT)
T1 construct: a hot spot full length mutant p53 Mut-p53 R175H (R175H p53); expressed in transfected cells; host or cells: H1299 (p53-null) cells stably overexpressing R175H p53; cell extract
Description: A commercial p53/DNA binding kit (R&D) was used, according to manufacturer instructions. Briefly, 96 well plates were coated with anti-p53 antibody overnight. Cell extracts containing p53 were reacted with an oligonucleotide that contains a p53 consensus binding site, labeled with biotin, in the presence or absence (NT) of test peptides. WT p53 is expected to bind this DNA binding site as well as to the antibody coating the test wells of the plate. Excess p53 and oligos are washed away and streptavidin-HRP is used to quantify the amount of oligos in the well, which is proportional to the DNA bound by p53. TMB assay was performed to determine HRP levels (450 nm). The results are presented as relative absorbance (at 450 nm) (Y-Axis) of each tested sample. MCF7 and the H1299-Mut-p53 (ts) A135V cells serve as positive controls for WT p53.
For these experiments, a commercial p53/DNA binding kit of “R&D” (Cat-DYC1355-5 Lot-1273366FA) was used, in accordance with manufacturer guide lines. Briefly, 96 well plates are coated with anti-p53 antibody overnight. Cell extracts containing p53 are reacted with an oligonucleotide that contains a p53 consensus binding site (provided in the kit), labeled with biotin, in the presence or absenc.
e (NT) of test peptides. WT p53 is expected to bind this DNA binding site as well as to the antibody coating the test wells of the plate. Excess p53 and oligos were washed away and streptavidin-HRP was used to quantify the amount of oligos in the well, which is proportional to the DNA bound by p53. TMB assay was performed to determine HRP (ES001-1L-K) levels (450 nm).
To measure the effect of the tested peptides on DNA binding of Mut-p53, a commercial ELISA kit, (R&D Systems DYC1355-5, Lot-1273366FA), was used as a high-throughput assay to quantify p53 activation. This kit uses a 96-well plate format. The kit was used according to manufacturer's instructions. Wells were coated with anti-p53 antibody overnight. Cell extracts containing p53 were reacted with a biotin labeled oligonucleotide containing a p53 consensus binding site (included in the kit). WT p53 is expected to bind this oligo as well as the antibody coating the wells. Excess p53 and oligo were washed away in wash buffer (0.05% Tween 20 in PBS, pH 7.2-7.4; R&D Systems, Catalog #WA126). Then, streptavidin-HRP (R&D Systems, Part 890803, provided in the kit) was added for 15-45 min to quantify the amount of oligo in the well, which is proportional to the DNA bound by p53. If the addition of a peptide to Mut-p53 extracts increases ELISA reading compared to background, this peptide is considered as functionally effective and may be selected for further analysis. […] As with the conformational screening, MCF7 and the H1299-Mut-p53 (ts) A135V cells served as positive controls for WT p53. Extracts were added to the wells coated with αp53-Ab, and after several washing steps, streptavidin-HRP was added for 1 hour, and then plates were washed again and TMB (substrate to HRP) assay was performed.

[2] = system: WI-38 fibroblasts overexpressing R175H p53 (WI38-175); assay: Crystal violet viability assay; assay type: cell-based; settings: 48 hours; much more prominent than in mNoxa-i control cells
Experimental: FIGS. 13A and 13B are bar graphs illustrating the effect of various tested peptides on the viability of cells expressing Mut-p53, as determine by crystal violet assay. WI-38 fibroblasts expressing endogenous WT p53 were infected with retroviruses expressing either mouse Noxa shRNA (WI38-m-Noxa-i) as a nonspecific control or the R175H p53 mutant for stable overexpression of mutant p53 (WI38-175). The cells (WI38-m-Noxa-i or WI38-175) were seeded at 3000 cells per well in 96-well plates. Tested peptides were added to the cells. Different concentrations of etoposide (cytotoxic drug, 4′-Demethyl-epipodophyllotoxin 9-[4,6-O—(R)-ethylidene-beta-D-glucopyranoside], 4′-(dihydrogen phosphate) were used as positive control for cell death and as a standard reference curve to assess the effect of tested peptides. 48 hours after treatment, cells were washed with PBS to exclude dead cells and debris, and cells that remained attached to the plate were stained with crystal-violet for 30 minutes. Crystal violet was removed and cells were washed 4 times with PBS to remove residual crystal violet. Then, the stained cells were dissolved in 10% acetic acid and plates were taken for optical density measurement at 595 nM (optimal for crystal violet). The bar graphs of FIGS. 13A and 13B show the optical density reads at 595 nm, which reflect the number of cells in the plate after treatment, normalized to the non-treated (NT) samples.
Cells were cultured in 96 wells plates with 2500-4000 cells/well in 0.1 ml and incubated overnight at 37° C. in order to adhere to the plate. Serial dilutions of different peptides (0.5 μg/ml) were added in 0.1 ml aliquots and the plates incubated for additional 48 h at 37° C. Then medium was removed and cell lysis was determined by staining the cells with crystal violet (0.5%) in methanol/water (1:4, v/v), 50 μl each well, for 10 min, followed by 3 washes with PBS. Afterwards, 10% acetic acid (50 μl) was added to each well and shaken for 10 min. Then, automatic plate reading was performed at 595 nm.
An important indication for the reactivating peptides activity is their effect in-vivo on cancer cells that express Mut-p53. In particular, reactivating peptides that can cause specifically Mut-p53-dependent death of cancer cells, with minimal toxic effects on normal cells are desired. A crystal-violet based viability assay, in which crystal-violet is employed to stain cells that adhere to the plate and therefore the amount of dye is proportional to cell number was used to determine the effect of the various test peptides on Mut-p53-dependent death.
Cells were plated in 96-well plates, at calibrated density that allows them to grow for 48 hours without reaching confluence. Peptides are added 6 hours later. Different concentrations of etoposide (cytotoxic drug) were used as positive control for cell death and as a standard reference curve to assess the effect of tested peptides. 48 hours after treatment, cells were washed with PBS to exclude dead cells and debris, and cells that remained attached to the plate were stained with crystal-violet for 30 minutes. Crystal-violet was removed and cells were washed with PBS 4 times to eliminate remains of crystal-violet. Then, the stained cells were dissolved in 10% acetic acid and plates were taken for optical density measurement at 595 nM (specific to crystal-violet).
FIGS. 13A and 13B illustrate a representative experiment of screening performed on 128 synthesized peptides. In this experiment, WI-38 fibroblasts were used. These cells express endogenous WT p53 and were further infected with a virus expressing either mouse Noxa shRNA, as a nonspecific control or the R175H p53 mutant for stable overexpression of mutant p53. Both of these sub-lines (mNoxa or R175H p53) were seeded at 3000 cells per well and treated as described above. […]

YRRLLIGMMWRRRRRRRRRRR [pCAP-68]
binding of H1299-R175H p53 extracts to p53-RE DNA [1]: elevate the binding of H1299-R175H p53 extracts to p53-RE DNA | reduction in cell numbers, R175H p53 expressing WI-38 cells [2]: toxic effect on both cell sub-lines
